This is an account of results in ChEMBL document CHEMBL1201862, “PubChem BioAssay data set” (2004).

The structures appear in SMILES notation.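 Test compounds were applied to cells in 96-well plates for 48 hours at 5 doses. GI50 marks 50% less growth.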 Active and inactive are the calls of the source. No stated cut-off is given here; in the data, active = GI50 up to about 1.1 µM and inactive = higher. Bounds are passed on as bounds.

Among the test systems are HOP-62; HCT-116; UACC-257; A549; NCI-H23; SN12C; OVCAR-3; OVCAR-5; CCRF-CEM; DU-145; BT-549; OVCAR-8; MCF7; SF-539; SR; IGROV-1; SK-MEL-28; U-251; RPMI-8226; NCI-H226.
Assay in all cases: NCI anticancer screen, dose series, 48 h

With `Cn1nnc2c3c(N(CCO)CCO)ccnc3ccc21`, the GI50 is 47.2 µM (inactive) in the experiment with HOP-62; 54.2 µM (inactive) with HCT-116; > 100 µM (inactive) in the experiment on UACC-257; > 100 µM (inactive) with A549; 97.9 µM (inactive) in the experiment with NCI-H23; > 100 µM (inactive) with SN12C. In addition, the GI50 with OVCAR-3, with OVCAR-5, in the experiment with CCRF-CEM, with DU-145, in the experiment with BT-549 and in the experiment on OVCAR-8 was > 100 µM (inactive) in each case. In addition, the GI50 in the experiment on MCF7 is 47.9 µM (inactive); with SF-539, 99.5 µM (inactive); in the experiment with SR it was 19.1 µM (inactive); with IGROV-1 it was > 100 µM (inactive).

In the case of `CCOC(=O)c1c(C)n(C)c2c1cc(O)c1[nH]c3c(c12)CCCC3`, the GI50 in the experiment on SK-MEL-28 is 17.5 µM (inactive); in the experiment on HOP-62, 38.3 µM (inactive); in the experiment on HCT-116 it was 17.9 µM (inactive); in the experiment on UACC-257, 3.61 µM (inactive); in the experiment with A549, 18 µM (inactive); in the experiment on NCI-H23 it was 21 µM (inactive). Further, the GI50 was 18.2 µM (inactive) in the experiment on U-251; 24.2 µM (inactive) in the experiment on SN12C; 5.62 µM (inactive) in the experiment with OVCAR-3; 28.8 µM (inactive) with OVCAR-5; 20.3 µM (inactive) in the experiment on CCRF-CEM; 22.8 µM (inactive) with DU-145. For the same compound, the GI50 was 45.7 µM (inactive) with BT-549; 21 µM (inactive) with OVCAR-8; 2.71 µM (inactive) in the experiment with MCF7; 19.2 µM (inactive) in the experiment with SF-539; 12.7 µM (inactive) in the experiment with IGROV-1; 3.93 µM (inactive) in the experiment on RPMI-8226.

As for `CC1(C)CC2C(=O)c3ccccc3NC2c2ccccc21` (configuration not stated), the GI50 in the experiment with SK-MEL-28 is 5.51 µM (inactive); with HOP-62 it was 3.75 µM (inactive); in the experiment on HCT-116, 2.99 µM (inactive); in the experiment on UACC-257, 40.4 µM (inactive); in the experiment with A549, 6.11 µM (inactive); in the experiment with NCI-H23, 4.98 µM (inactive). In addition, the GI50 is 5.47 µM (inactive) with U-251; 5.79 µM (inactive) in the experiment on SN12C; 4.29 µM (inactive) with OVCAR-3; > 26.2 µM (inactive) in the experiment with OVCAR-5; 4.34 µM (inactive) with CCRF-CEM; 3.6 µM (inactive) with DU-145. Further, the GI50 is 11.9 µM (inactive) in the experiment on NCI-H226; 10.8 µM (inactive) with BT-549; 5.96 µM (inactive) in the experiment on OVCAR-8; 4.33 µM (inactive) with MCF7; 2.33 µM (inactive) with SF-539; 7.13 µM (inactive) with IGROV-1. Moreover, the GI50 in the experiment with RPMI-8226 is 2.54 µM (inactive).

For `CCOC(=O)C(Cc1ccc(OC(=O)OC(C)(C)C)cc1)NC(=O)OC(C)(C)C` (configuration not stated), the GI50 in the experiment on SK-MEL-28 was > 100 µM (inactive); in the experiment on HOP-62, > 100 µM (inactive); in the experiment on HCT-116, 78 µM (inactive); in the experiment on UACC-257, 21.3 µM (inactive); in the experiment on A549 it was > 100 µM (inactive); in the experiment with NCI-H23 it was > 100 µM (inactive). Besides, the GI50 in the experiment with U-251 is 37.2 µM (inactive); with SN12C it was 44.8 µM (inactive); in the experiment with OVCAR-3, 40.6 µM (inactive); in the experiment on OVCAR-5, > 100 µM (inactive); in the experiment on CCRF-CEM, 21.9 µM (inactive); in the experiment with DU-145 it was 30.5 µM (inactive). The GI50 with NCI-H226 was > 100 µM (inactive); in the experiment on BT-549, > 100 µM (inactive); with OVCAR-8, 37.4 µM (inactive); in the experiment with MCF7, > 100 µM (inactive); with SF-539, 44.8 µM (inactive); in the experiment on SR it was 26.4 µM (inactive). In the experiment on IGROV-1, the GI50 was 50.1 µM (inactive).

Turning to `Cc1n[n+]([O-])c(C)cc1[N+](=O)[O-]`, the GI50 with SK-MEL-28 was 18 µM (inactive); in the experiment on HOP-62 it was 19.5 µM (inactive); in the experiment on HCT-116, 16.1 µM (inactive); in the experiment with UACC-257, 15.6 µM (inactive); in the experiment on A549 it was 22 µM (inactive); in the experiment with NCI-H23, 16 µM (inactive). In addition, the GI50 is 22.4 µM (inactive) in the experiment on U-251; 14.9 µM (inactive) in the experiment with SN12C; 14.5 µM (inactive) in the experiment with OVCAR-3; 19.5 µM (inactive) with OVCAR-5; 1.36 µM (inactive) in the experiment on CCRF-CEM; 21.7 µM (inactive) with DU-145. Moreover, the GI50 with NCI-H226 is 26.9 µM (inactive); in the experiment with BT-549, 24.7 µM (inactive); in the experiment with OVCAR-8 it was 15.5 µM (inactive); with MCF7 it was 17.3 µM (inactive); in the experiment on SF-539, 27.6 µM (inactive); with IGROV-1, 21.8 µM (inactive). The GI50 with RPMI-8226 was 0.552 µM (active).

In the case of `C/C(=C/C(=O)Nn1c(Cc2ccccc2)n[nH]c1=O)C(=O)O`, the GI50 in the experiment on SK-MEL-28, in the experiment on HOP-62, in the experiment with HCT-116, with UACC-257, with A549 and with NCI-H23 was > 100 µM (inactive) in each case. For the same compound, the GI50 in the experiment on U-251, with SN12C, in the experiment with OVCAR-3, in the experiment on OVCAR-5, in the experiment with CCRF-CEM and in the experiment on DU-145 was > 100 µM (inactive) each time. Also, the GI50 in the experiment with NCI-H226, with BT-549, in the experiment on OVCAR-8, in the experiment on MCF7, in the experiment with SF-539 and with IGROV-1 was > 100 µM (inactive) throughout. In addition, in the experiment with RPMI-8226, the GI50 was > 100 µM (inactive).

For `COCN(CCC1=CCCCC1)C(=O)OC`, the GI50 in the experiment on SK-MEL-28 was > 100 µM (inactive); in the experiment with HOP-62 it was > 100 µM (inactive); in the experiment on HCT-116 it was 41.4 µM (inactive); with UACC-257 it was > 100 µM (inactive); with A549, > 100 µM (inactive); in the experiment with NCI-H23 it was 51.6 µM (inactive). The GI50 in the experiment on U-251 was > 100 µM (inactive); in the experiment with OVCAR-3, 76.7 µM (inactive); in the experiment with OVCAR-5, > 100 µM (inactive); in the experiment on DU-145, 49.8 µM (inactive); in the experiment with BT-549, > 100 µM (inactive); in the experiment with OVCAR-8, > 100 µM (inactive). Further, the GI50 in the experiment on MCF7 was 43.1 µM (inactive); with SR, > 100 µM (inactive); with IGROV-1, > 100 µM (inactive); in the experiment on RPMI-8226 it was > 100 µM (inactive).

Consider `O=CC1C(=O)Nc2nc3ccccc3n2C1c1ccccc1` (configuration not stated), for which the GI50 in the experiment with SK-MEL-28 is 19.6 µM (inactive); with HOP-62, 5.06 µM (inactive); in the experiment with HCT-116, 12.4 µM (inactive); with UACC-257, 15 µM (inactive); in the experiment on A549, 23.3 µM (inactive); in the experiment on NCI-H23, 19.2 µM (inactive). Moreover, the GI50 is 14.4 µM (inactive) in the experiment with U-251; 5.7 µM (inactive) with SN12C; 7.89 µM (inactive) in the experiment with OVCAR-3; 25.2 µM (inactive) in the experiment with OVCAR-5; 4.38 µM (inactive) with CCRF-CEM; 12.7 µM (inactive) in the experiment on DU-145. Moreover, the GI50 is 17.1 µM (inactive) in the experiment on NCI-H226; 14.1 µM (inactive) in the experiment on BT-549; 11.7 µM (inactive) in the experiment on OVCAR-8; 10.6 µM (inactive) with MCF7; 17.9 µM (inactive) in the experiment with SF-539; 13.9 µM (inactive) in the experiment on IGROV-1. Besides, in the experiment with RPMI-8226, the GI50 is 16.3 µM (inactive).

Turning to `O=Nc1c(-c2cccc([N+](=O)[O-])c2)nc2cnccn12`, the GI50 in the experiment with SK-MEL-28 is 21.5 µM (inactive); in the experiment with HOP-62 it was 26.6 µM (inactive); in the experiment on HCT-116, 4.68 µM (inactive); with UACC-257 it was 19.7 µM (inactive); in the experiment on A549 it was 29.5 µM (inactive); in the experiment on NCI-H23, 16.7 µM (inactive). Besides, the GI50 was 20.4 µM (inactive) in the experiment on U-251; 24.4 µM (inactive) in the experiment on SN12C; 16.8 µM (inactive) in the experiment with OVCAR-3; 20.1 µM (inactive) in the experiment with OVCAR-5; 0.14 µM (active) in the experiment on CCRF-CEM; 16.4 µM (inactive) with DU-145. For the same compound, the GI50 with NCI-H226 was 18.5 µM (inactive); in the experiment with BT-549, 27.9 µM (inactive); with OVCAR-8 it was 14.5 µM (inactive); in the experiment with MCF7, 36 µM (inactive); in the experiment with SF-539 it was 20.3 µM (inactive); in the experiment on SR it was 2.2 µM (inactive). In addition, the GI50 with IGROV-1 is 17.4 µM (inactive).

With `O=C(CC(=O)CC(O)(C(F)(F)F)C(F)(F)F)CC(O)(C(F)(F)F)C(F)(F)F`, the GI50 in the experiment with SK-MEL-28, in the experiment with HOP-62, with HCT-116, with UACC-257, with A549 and with NCI-H23 was > 10 µM (inactive) throughout. In addition, the GI50 in the experiment on U-251, with SN12C, with OVCAR-3, in the experiment on OVCAR-5, in the experiment on CCRF-CEM and in the experiment with DU-145 was > 10 µM (inactive) in each case. The GI50 in the experiment on NCI-H226, with BT-549, in the experiment with OVCAR-8, in the experiment with MCF7, in the experiment on SF-539 and in the experiment on IGROV-1 was > 10 µM (inactive) in each case. For the same compound, in the experiment on RPMI-8226, the GI50 is > 10 µM (inactive).

As to `CC[C@@]1(O)C(=O)OCc2c1cc1n(c2=O)Cc2cc3cc(O)ccc3nc2-1` [HYDROXYCAMPTOTHECIN], the GI50 in the experiment with HOP-62 is < 0.0109 µM (active); in the experiment with A549, 0.0506 µM (active); in the experiment with NCI-H23 it was 0.0176 µM (active); with U-251 it was < 0.0075 µM (active); with SN12C, 0.0128 µM (active); with OVCAR-5, 0.047 µM (active). For the same compound, the GI50 was < 0.0075 µM (active) in the experiment on CCRF-CEM; 0.01 µM (active) in the experiment on DU-145; 0.0543 µM (active) in the experiment on BT-549; 0.0142 µM (active) in the experiment on OVCAR-8; < 0.0075 µM (active) with MCF7; 0.00826 µM (active) in the experiment on SF-539. Moreover, the GI50 was 0.01 µM (active) in the experiment with SR and 0.476 µM (active) in the experiment with IGROV-1.
